Laboratory results published in patent US20220282217A1, “COMPOSITIONS AND METHODS FOR PREPARING T CELL COMPOSITIONS AND USES THEREOF” (priority 2019, published 2022).
Several values for one entry are separate records, joined by “and”; a condition that tells them apart may be missing. Identical values can stand only once. Like-named read-outs stand apart in the source and are kept apart here. Where a SMILES comes first, the peptide text is derived from it.

How the values were obtained:
[1] = molecular target: T1, HLA-A02.01 (Homo sapiens, UniProt P04439, D140Y/D185E/D98H/E176V/E277Q/G131W/G231S/I119V/I121R/I166T/I218V/N151K/N90K/P208A/P217A/Q86G/Q94H/R138H/R169H); test: Class I MHC peptide binding stability (pMHC-I dissociation, 125I-labeled light chain); details: allele A02.01
T1 construct: made in house; host or cells: E. coli

[2] = molecular target: T2, HLA-B07.02 (Homo sapiens, UniProt P01889); test: as above; parameters: made in house; host or cells: E. coli; details: Allele B07.02
[3] = molecular target: HLA-A02.01 (Homo sapiens, UniProt P04439, D140Y/D185E/D98H/E176V/E277Q/G131W/G231S/I119V/I121R/I166T/I218V/L300P/L318F/N151K/N90K/P208A/P217A/Q86G/Q94H/R138H/R169H/T345S); test: Class I MHC peptide binding affinity (displacement of radiolabeled reference peptide); details: allele A02.01, (nM))
Procedure, shortened: (§1)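 Read-out: radioactivity of reference peptide retained on MHCI, separated from free label by gel-filtration size exclusion. Competing peptides are titrated against the preformed complexes and incubated two days beforehand.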

[4] = molecular target: T2, HLA-B07.02; test: as above; details: Allele B07.02; read-out: Observed Affinity (IC50; (nM))
[5] = molecular target: HLA-B08.01 (Homo sapiens, UniProt P01889, A93T/A95T/D138N/E176V/E187T/K202T/Q94N/R180D/S35A/V36M/Y33D/Y91F); test: as above
Procedure, shortened: as §1

[6] = tested on: HLA-A24.02; test: Class I MHC peptide binding stability (pMHC-I dissociation, 125I-labeled light chain); parameters: species or system human; details: allele A24.02
[7] = molecular target: HLA-A24.02; test: Class I MHC peptide binding affinity (displacement of radiolabeled reference peptide); parameters: species or system human; details: allele A24.02; read-out: Observed Affinity (IC50; (nM))
[8] = read-out: Observed Affinity (IC50

Q: `CC[C@H](C)[C@H](NC(=O)[C@H](CCCCN)NC(=O)[C@H](C)NC(=O)[C@@H](NC(=O)[C@@H](N)CCCNC(=N)N)C(C)C)C(=O)N[C@@H](C)C(=O)N[C@@H](CC(=O)O)C(=O)N[C@@H](Cc1ccccc1)C(=O)NCC(=O)N[C@@H](CCSC)C(=O)O` (H-RVAKIADFGM-OH; N-terminus and C-terminus assumed) was tested. Which “Stability (T1/2 (h))” value [1] did it give?
A: 0.5 h

Q: What about the “Stability (T1/2 (h))” value [2] of the same compound?
A: 0.2 h

Q: And the IC50 [3, 8]?
A: 125 nM

Q: And the IC50 [4]?
A: 9720 nM

Q: For `CC(C)C[C@H](N)C(=O)N[C@@H](C)C(=O)N[C@H](C(=O)N[C@@H](CCC(=O)O)C(=O)N[C@@H](CCCCN)C(=O)N[C@@H](CO)C(=O)N[C@@H](CCCNC(=N)N)C(=O)N[C@@H](Cc1c[nH]c2ccccc12)C(=O)N[C@@H](CO)C(=O)O)[C@@H](C)O` (H-LATEKSRWS-OH; N-terminus and C-terminus assumed), which IC50 ([3]; Observed Affinity (IC50) is on record?
A: 61000 nM

Q: And the IC50 [5]?
A: 37000 nM

Q: Which results are given for `CC(C)C[C@H](N)C(=O)N1CCC[C@H]1C(=O)N[C@@H](CCCNC(=N)N)C(=O)N[C@@H](CCCCN)C(=O)N1CCC[C@H]1C(=O)N[C@H](C(=O)N[C@@H](CCCNC(=N)N)C(=O)N[C@@H](C)C(=O)N[C@@H](C)C(=O)N[C@H](C(=O)O)[C@@H](C)O)[C@@H](C)O` (H-LPRKPTRAAT-OH; N-terminus and C-terminus assumed)?
A: Stability (T1/2 (h)) [2]: 3.7 h; IC50 [4]: 3 nM

Q: Which results are given for `CC[C@H](C)[C@H](NC(=O)[C@H](Cc1ccccc1)NC(=O)[C@H](CCCNC(=N)N)NC(=O)[C@@H]1CCCN1C(=O)[C@H](CC(C)C)NC(=O)[C@@H](N)CO)C(=O)N[C@@H](CC(C)C)C(=O)N[C@@H](CCSC)C(=O)N[C@@H](CCC(=O)O)C(=O)N[C@@H](CC(C)C)C(=O)O`?
A: Stability (T1/2 (h)) [1]: 0.5 h; Stability (T1/2 (h)) [2]: 0.4 h; Stability (T1/2 (h)) [6]: 0.2 h; IC50 [3, 8]: 26 nM; IC50 [7]: 2770 nM

Q: With `CC(C)C[C@H](N)C(=O)N[C@@H](C)C(=O)N[C@H](C(=O)N[C@@H](CCC(=O)O)C(=O)N[C@@H](CCCCN)C(=O)N[C@@H](CO)C(=O)N[C@@H](CCCNC(=N)N)C(=O)N[C@@H](Cc1c[nH]c2ccccc12)C(=O)N[C@@H](CO)C(=O)NCC(=O)O)[C@@H](C)O` (H-LATEKSRWSG-OH; N-terminus and C-terminus assumed) as the compound, how does the IC50 ([3]; Observed Affinity (IC50) read?
A: 23300 nM

Q: And the IC50 [5]?
A: 46600 nM

Q: With `CC(C)[C@H](NC(=O)[C@H](CO)NC(=O)[C@@H](NC(=O)[C@@H](NC(=O)[C@H](C)NC(=O)[C@H](C)NC(=O)[C@H](CCCNC(=N)N)NC(=O)[C@@H](NC(=O)[C@@H]1CCCN1C(=O)[C@@H](N)CCCCN)[C@@H](C)O)[C@@H](C)O)C(C)C)C(=O)O` (H-KPTRAATVSV-OH; N-terminus and C-terminus assumed) as the compound, how does the “Stability (T1/2 (h))” value [2] read?
A: 3 h

Q: And the IC50 [4]?
A: 8 nM

Q: How did the IC50 [5] turn out when `CC(C)C[C@H](NC(=O)[C@@H]1CCCN1C(=O)[C@H](CO)NC(=O)[C@H](CCCNC(=N)N)NC(=O)[C@H](CC(C)C)NC(=O)[C@H](CCCCN)NC(=O)[C@H](CCCCN)NC(=O)[C@@H](N)CC(C)C)C(=O)O` (H-LKKLRSPL-OH; N-terminus and C-terminus assumed) was run?
A: 0.6 nM

Q: What does the source list for `CC(C)C[C@H](NC(=O)[C@H](C)NC(=O)[C@@H](NC(=O)[C@H](CCCNC(=N)N)NC(=O)[C@H](CO)NC(=O)[C@H](CC(=O)O)NC(=O)[C@H](CO)NC(=O)[C@H](CC(C)C)NC(=O)[C@@H](N)CCCCN)[C@@H](C)O)C(=O)O` [KLSDSRTAL]?
A: Stability (T1/2 (h)) [1]: 2.8 h; Stability (T1/2 (h)) [2]: 6.8 h

Q: With `CSCC[C@H](NC(=O)[C@H](CC(C)C)NC(=O)[C@@H](N)CCCCN)C(=O)N[C@@H](CC(C)C)C(=O)N[C@@H](CC(C)C)C(=O)N[C@@H](CCCNC(=N)N)C(=O)N[C@@H](CC(C)C)C(=O)N[C@@H](CC(N)=O)C(=O)N[C@@H](CC(C)C)C(=O)O` as the compound, how does the “Stability (T1/2 (h))” value [1] read?
A: 16.9 h

Q: What about the “Stability (T1/2 (h))” value [2] of the same compound?
A: 1.5 h

Q: And the IC50 [3, 8]?
A: 17 nM and 2.6 nM

Q: How did the IC50 ([3]; Observed Affinity (IC50) turn out when `CC(C)C[C@H](NC(=O)[C@@H]1CCCN1C(=O)[C@@H]1CCCN1C(=O)[C@@H](NC(=O)[C@H](CO)NC(=O)[C@H](CC(C)C)NC(=O)[C@H](CC(C)C)NC(=O)[C@H](CCC(=O)O)NC(=O)[C@@H](N)Cc1ccccc1)[C@@H](C)O)C(=O)O` (H-FELLSTPPL-OH; N-terminus and C-terminus assumed) was run?
A: 225 nM

Q: What about the IC50 [5] of the same compound?
A: 3180 nM
